Assay results reported in patent US10350213B2 (AI Therapeutics, Inc., priority 2015, dated 2019).
pIC50: −log10 of the molar value. Read-outs that look alike come from different tables or passages of the source.

How the values were obtained:
[1] = system: K562 (Human myelogenous leukemia); experiment: CellTiterGlo cell viability assay; format: cell-based
[2] = system: NCI-H1781 (Human bronchioalveolar); experiment: CellTiterGlo cell viability assay; format: cell-based
[3] = system: DU145 (Human prostate cancer); experiment: CellTiterGlo cell viability assay; format: cell-based; details: DU-145
[4] = system: H358 (Human lung carcinoma); experiment: CellTiterGlo cell viability assay; format: cell-based; details: NCI-H358
[5] = system: LnCap (Human prostate cancer); experiment: CellTiterGlo cell viability assay; format: cell-based
H4 (Human neuroglioma) = experiment: CellTiterGlo cell viability assay; format: cell-based
[6] = system: 122 human cancer cell lines representing 24 tumor types; experiment: 3-day CellTiterGlo assay, cancer cell line panel; format: cell-based; details: of 122 human cancer cell lines; sensitive if IC50 less than 500 nM; 3-day assay
Source text: (§1) 35 cell lines were identified as sensitive to apilimod-induced cytotoxicity in this assay. The apilimod-sensitive cells included cells derived from several different cancers including non-Hodgkin's lymphoma, Hodgkin's lymphoma, colorectal cancer, and lung cancer. The most sensitive of those tested were non-Hodgkin's Lymphoma (NHL) cell lines. […] The only NHL subtype not sensitive in this assay was follicular.

[7] = system: Jurkat (Human T-cell leukemia); experiment: CellTiterGlo cell viability assay; format: cell-based
[8] = active Crohn's disease; Sands et al. 2010; cited from earlier work
NHL cell lines = experiment: 7 day cell viability assay, NHL cell lines; format: cell-based; details: 7 day assay; for pIC50: 168 h
Source text: (§2) This is exemplified in FIG. 2A for the HCT116 colorectal carcinoma cells. […] And all NHL subtypes were sensitive in this assay, including mantle, follicular, Burkitt's, DLBCL-ABC, DLBCL-GCB, and double-hit DLBCL.

[9] = system: M0591K (Human neuroblastoma); experiment: CellTiterGlo cell viability assay; format: cell-based
[10] = system: A549 (Human lung carcinoma); experiment: CellTiterGlo cell viability assay; format: cell-based
[11] = system: PC-3 (Human prostate cancer); experiment: CellTiterGlo cell viability assay; format: cell-based
[12] = system: non-Hodgkin's Lymphoma (NHL) cell lines; experiment: 3-day CellTiterGlo assay, NHL cell lines; format: cell-based, human; details: sensitive if IC50 less than 500 nM; 3-day assay
Source text: as §1

[13] = system: 456 kinases (PIKfyve not included); experiment: Kinase panel binding screen (DiscoveRx); details: screening concentration 1 μM
Source text: Next, apilimod was screened against a comprehensive panel of kinases (PIKfyve not included).

[14] = system: PANC1 (Human pancreatic cancer); experiment: CellTiterGlo cell viability assay; format: cell-based; details: PANC-1
all cell lines = experiment: Longer cell viability assays (3, 5, and 7 days); format: cell-based; details: 168 h, 7-day exposure
Source text: as §2

[15] = system: SUDHL-6 human DLBCL cancer xenograft; experiment: Subcutaneous SUDHL-6 human DLBCL cancer xenograft model; format: in vivo, NOD-SCID mice
Description: The tumor cells were sub-cultured twice weekly and harvested during exponential growth for tumor inoculation. NOD-SCID mice were γ-irradiated 24 hrs before inoculation. Each mouse was inoculated subcutaneously in the right flank with SU-DHL-6 tumor cells (5×10^6) in 0.1 ml of PBS with Matrigel (1:1). The tumors were then grown to a mean size of approximately 80-120 mm^3 and the mice were then split into 5 groups and treated as detailed in the Table 5.
Tumor size was measured twice a week in two dimensions using a caliper, and the volume is expressed in mm^3 using the formula: V=0.5 a×b^2 where a and b are the long and short diameters of the tumor, respectively.
Each mouse was inoculated subcutaneously in the right flank with SU-DHL-6 tumor cells (5×10^6) in 0.1 ml of PBS with Matrigel (1:1). The tumors were then grown to a mean size of approximately 80-120 mm^3 and the mice were then split into 6 groups and treated as detailed in the Table 6.

[16] = system: peripheral blood mononuclear cells; experiment: Vacuole formation in peripheral blood mononuclear cells; format: cell-based; details: treatment for 24 h
[17] = Phase 1 dose-escalation (QD/BID) study in normal healthy volunteers; format: in vivo, human; details: for Cmax: oral, human plasma, mean
[18] = system: U-87 MG (Human neuroblastoma); experiment: CellTiterGlo cell viability assay; format: cell-based
[19] = system: THP1 (Human acute monocytic leukemia); experiment: CellTiterGlo cell viability assay; format: cell-based; details: THP-1
[20] = system: RPMI-8226 (Human plasmacytoma); experiment: CellTiterGlo cell viability assay; format: cell-based
[21] = system: CAPAN2 (Human pancreatic cancer); experiment: CellTiterGlo cell viability assay; format: cell-based; details: Capan-2

## Cc1cccc(/C=N/Nc2cc(N3CCOCC3)nc(OCCc3ccccn3)n2)c1 [apilimod]
[1]
  pIC50: < 5.30
[2]
  pIC50: < 4.70
[3]
  pIC50: < 5.70
[4]
  pIC50: < 5.70
[5]
  pIC50: 5.52
H4 (Human neuroglioma)
  pIC50: 6.60
[6]
  number of cell lines sensitive to apilimod-induced cytotoxicity: 35
[7]
  pIC50: 6.70
[8]
  efficacy over placebo: did not demonstrate efficacy over placebo
  tolerability: well tolerated
NHL cell lines; 32 NHL cell lines tested
  share of NHL cell lines sensitive to apilimod: 72%
NHL cell lines; different NHL subtypes, read-out: IC50
  pIC50: > 6.90
NHL cell lines; sensitive NHL cell lines, read-out: average IC50
  pIC50: 7.16
[9]
  pIC50: < 5.00
[10]
  pIC50: 6.96
[11]
  pIC50: 5.00
[12]
  share of NHL cell lines sensitive to apilimod: over 50%
[13]
  binding to kinase panel: did not bind to any of the 456 kinases tested
[14]
  pIC50: < 5.70
All cell lines
  pIC50: > 6.90
[15]; 75 mg/kg apilimod free base p.o. QD×5, 2 days off, QD×5, 31 days
  tumor growth inhibition: 57%
[15]; all apilimod treatment arms, i.v. and p.o., 29 days
  effect on body weight: negligible effect on body weight
[15]; apilimod dimesylate 67.5 mg/kg (47 mg/kg free base) i.v. QD×5, 2 days off, QD×5, 29 days
  reduction of tumor size: 58%
[15]; apilimod free base p.o. 150 mg/kg single dose (QD×5, 2 days off), 29 days
  reduction of tumor growth: 64%
[15]; apilimod free base p.o. 150 mg/kg split dose (75 mg/kg BID×5, 2 days off, BID×5), 29 days
  reduction of tumor growth: 68%
[16]
  vacuole formation: induces vacuole formation
[17]; 50 ng/ml equal to 125 nM, 105 mg BID
  share of the 24 hr period with plasma concentrations above 50 ng/ml: ~50%
[17]; 105 mg BID, humans
  safety profile: tolerable safety profile
[17]; Treatment E: 70 mg ×2, total 140 mg, read-out: PM Cmax
  Cmax: 110 ng/mL
[17]; human, plasma, po, 7 mg, Treatment A: 7 mg once, total 7 mg, read-out: AM Cmax
  Cmax: 10.8 ng/mL
[17]; human, plasma, po, 7 mg, Treatment B: 7 mg ×2, total 14 mg, read-out: AM Cmax
  Cmax: 12.7 ng/mL
[17]; human, plasma, po, 7 mg, Treatment B: 7 mg ×2, total 14 mg, read-out: PM Cmax
  Cmax: 8.18 ng/mL
[17]; human, plasma, po, 14 mg, Treatment C: 14 mg ×2, total 28 mg, read-out: AM Cmax
  Cmax: 18.2 ng/mL
[17]; human, plasma, po, 14 mg, Treatment C: 14 mg ×2, total 28 mg, read-out: PM Cmax
  Cmax: 10.7 ng/mL
[17]; human, plasma, po, 35 mg, Treatment D: 35 mg ×2, total 70 mg, read-out: AM Cmax
  Cmax: 71.8 ng/mL
[17]; human, plasma, po, 35 mg, Treatment D: 35 mg ×2, total 70 mg, read-out: PM Cmax
  Cmax: 63 ng/mL
[17]; human, plasma, po, 70 mg, Treatment E: 70 mg ×2, total 140 mg, read-out: AM Cmax
  Cmax: 145 ng/mL
[17]; human, plasma, po, 105 mg, Treatment F: 105 mg ×2, total 210 mg, read-out: AM Cmax
  Cmax: 192 ng/mL
[17]; human, plasma, po, 105 mg, Treatment F: 105 mg ×2, total 210 mg, read-out: PM Cmax
  Cmax: 149 ng/mL
[18]
  pIC50: < 5.00
[19]
  pIC50: < 5.00
[20]
  pIC50: < 5.00
[21]
  pIC50: < 5.70
